Usually IC50 stands for the concentration at which inhibition is half-maximal.

This assay concerns cellular pERK in NCI-H1975 cells (EGFR/L858R-T790M). Kind of assay: pERK potency assay (In Cell ELISA). Type of assay: cell-based. As to conditions: Homo sapiens, 1 h compound incubation. On the technique in general: An ELISA detects its analyte on a solid surface through an enzyme-linked reagent.

For `Cc1n/c(=N\[C@H](C)c2cccc(C(F)F)c2F)c2cc(C3(C(F)F)CC3)ncc2n1C` [Compound 94, (R,Z)—N-(1-(3-(difluoromethyl)-2-fluorophenyl)ethyl)-6-(1-(difluoromethyl)cyclopropyl)-1,2-dimethylpyrido[3,4-d]pyrimidin-4(1H)-imine], the IC50 is less than 0.1 µM.

Turning to `Cc1n/c(=N\[C@H](C)c2cccc(C(F)F)c2F)c2cc(C3=CCN(S(C)(=O)=O)CC3)ncc2n1C` [Compound 97, (R,Z)—N-(1-(3-(difluoromethyl)-2-fluorophenyl)ethyl)-1,2-dimethyl-6-(1-(methylsulfonyl)-1,2,3,6-tetrahydropyridin-4-yl)pyrido[3,4-d]pyrimidin-4(1H)-imine], the IC50 is less than 0.1 µM.

For `CC(=O)NC/C=C/c1cc2/c(=N/[C@H](C)c3cccc(C(F)F)c3F)nc(C)n(C)c2cn1` [Compound 98, N-((E)-3-((Z)-4-(((R)-1-(3-(difluoromethyl)-2-fluorophenyl)ethyl)imino)-1,2-dimethyl-1,4-dihydropyrido[3,4-d]pyrimidin-6-yl)allyl)acetamide], the IC50 is less than 0.1 µM.
